# Data published in patent US9938257B2 (Sunshine Lake Pharma Co., Ltd., priority 2015, dated 2018).
# How the values were obtained:
# [1] = molecular target: Aurora-A (h) (Homo sapiens (Human), UniProt O14965); assay: Aurora-A (h) kinase activity assay; type: biochemical
# Description: (§1) The above assay procedure can be used to determine the IC50 for inhibition and/or the inhibition constant, Ki. The IC50 is defined as the concentration of compound required to reduce the enzyme activity by 50% under the condition of the assay. The IC50 value is estimated by preparing a 10 point curve using a ½ log dilution series (for example, a typical curve may be prepared using the following compound concentrations: 3 μM, 1 μM, 0.3 μM, 0.1 μM, 0.03 μM, 0.01 μM, 0.003 μM, 0.001 μM, 0.0003 μM and 0 μM).
# (§2) Aurora-A (h) is incubated with 8 mM MOPS pH 7.0, 0.2 mM EDTA, 200 μM LRRASLG (Kemptide), 10 mM MgAcetate and [γ-^33P-ATP] (specific activity approx. 500 cpm/pmol, concentration as required). The reaction is initiated by the addition of the MgATP mix. After incubation for 40 minutes at room temperature, the reaction is stopped by the addition of 3% phosphoric acid solution. 10 μL of the reaction is then spotted onto a P30 filtermat and washed three times for 5 minutes in 75 mM phosphoric acid and once in methanol prior to drying and scintillation counting.
# (§3) The kinase assays described herein were performed at Millipore UK Ltd, Dundee Technology Park, Dundee DD2 1SW, UK.
# [2] = Pharmacokinetics after intravenous and oral administration in rats; type: in vivo; settings: for Clearance (CL) after iv dosing / AUC(0-t) / half-life / Vd: dose 1 mg/kg, iv dosing; for F: oral bioavailability, iv dose 1 mg/kg; for AUC(0-t) / half-life / Vd: rat, plasma; for Vd: read-out: Vss
# Description: The compounds disclosed herein are assessed in pharmacokinetic studies in mice, rats, dogs or monkeys. The compounds are administered as a water solution, 2% HPMC+1% TWEEN®80 in water solution, 5% DMSO+5% solutol in saline, 4% MC suspension or capsule. For the intravenous administration, the animals are generally given at 0.5, 1 or 2 mg/kg dose. For the oral (p.o.) dosing, mice and rats are generally given 0.5, 1, 5 or 10 mg/kg dose, and dogs and monkeys are generally given 10 mg/kg dose. The blood samples (0.3 mL) are drawn at 0.25, 0.5, 1.0, 2.0, 3.0, 4.0, 6.0, 8.0, 12 and 24 h time points or 0.083, 0.25, 0.5, 1.0, 2.0, 4.0, 6.0, 8.0 and 24 h time points and centrifuged at 3,000 or 4000 rpm for 2 to 10 min. The plasma solutions are collected, and stored at −20° C. or −70° C. until analyzed by LC/MS/MS as described above.
# [3] = molecular target: Aurora-B (h) (Homo sapiens (Human), UniProt Q96GD4); assay: Aurora-B (h) kinase activity assay; type: biochemical
# Aurora-B (h), sequence (Q96GD4 whole entry): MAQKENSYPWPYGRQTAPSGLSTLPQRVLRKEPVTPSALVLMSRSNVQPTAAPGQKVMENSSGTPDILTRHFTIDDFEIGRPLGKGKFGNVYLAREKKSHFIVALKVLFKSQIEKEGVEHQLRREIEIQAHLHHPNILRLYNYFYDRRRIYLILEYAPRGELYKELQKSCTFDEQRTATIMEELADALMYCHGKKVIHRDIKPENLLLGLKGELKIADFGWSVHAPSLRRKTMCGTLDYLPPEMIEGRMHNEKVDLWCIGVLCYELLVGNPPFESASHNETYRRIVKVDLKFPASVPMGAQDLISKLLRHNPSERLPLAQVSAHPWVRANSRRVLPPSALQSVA
# Description: as §1
# Aurora-B (h) is incubated with 8 mM MOPS pH 7.0, 0.2 mM EDTA, 30 μM AKRRRLSSLRA, 10 mM MgAcetate and [γ-^33PATP] (specific activity approx. 500 cpm/pmol, concentration as required). The reaction is initiated by the addition of the MgATP mix. After incubation for 40 minutes at room temperature, the reaction is stopped by the addition of a 3% phosphoric acid solution. 10 μL of the reaction is then spotted onto a P30 filtermat and washed three times for 5 minutes in 75 mM phosphoric acid and once in methanol prior to drying and scintillation counting.
# as §3
# [4] = Compound stability in human liver microsomes; type: in vitro ADME; settings: pH 7.4; for half-life at 5 μM: human liver microsomes 0.5 mg protein/mL, compound 5 μM, NADPH 1.0 mM, 37° C., read-out: Human T1/2; for CLint scaled at 5 μM: human liver microsomes, in vivo CLint extrapolated
# Description: (§4) Human or rat liver microsomes incubations were conducted in duplicate in polypropylene tubes. The typical incubation mixtures consisted of human or rat liver microsomes (0.5 mg protein/mL), compounds of interest (5 μM) and NADPH (1.0 mM) in a total volume of 200 μL potassium phosphate buffer (PBS, 100 mM, pH 7.4). Compounds were dissolved in DMSO and diluted with PBS such that the final concentration of DMSO was 0.05%. The enzymatic reactions were commenced with the addition of protein after a 3-min preincubation and incubated in a water bath open to the air at 37° C. Reactions were terminated at various time points (0, 5, 10, 15, 30, 60 min) by adding equal volume of ice-cold acetonitrile. The samples were stored at −80° C. until LC/MS/MS assays.
# (§5) The concentrations of compounds in the incubation mixtures of human or rat liver microsomes were determined by a LC/MS/MS method. The ranges of the linearity in the concentration range were determined for each tested compounds.
# (§6) A parallel incubation was performed using denatured microsomes as the negative control, and reactions were terminated at various time points (0, 15, 60 min) after incubation at 37° C.
# (§7) Dextromethorphan (70 μM) was selected as the positive control, and reactions were terminated at various time points (0, 5, 10, 15, 30, 60 min) after incubation at 37° C. Both positive and negative control samples were included in each assay to ensure the integrity of the microsomal incubation system.
# (§8) The concentrations of compounds in human or rat liver microsome incubations were plotted as a percentage of the relevant zero time point control for each reaction. The in vivo CLint were extrapolated (ref.: Naritomi, Y.; Terashita, S.; Kimura, S.; Suzuki, A.; Kagayama, A.; and Sugiyama, Y.; Prediction of human hepatic clearance from in vivo animal experiments and in vitro metabolic studies with liver microsomes from animals and humans. Drug Metab. Dispos., 2001, 29: 1316-1324).
# [5] = molecular target: JAK1 (h) (Homo sapiens (Human), UniProt P23458); assay: JAK1 (h) kinase activity assay; type: biochemical
# JAK1 (h), sequence (P23458 whole entry): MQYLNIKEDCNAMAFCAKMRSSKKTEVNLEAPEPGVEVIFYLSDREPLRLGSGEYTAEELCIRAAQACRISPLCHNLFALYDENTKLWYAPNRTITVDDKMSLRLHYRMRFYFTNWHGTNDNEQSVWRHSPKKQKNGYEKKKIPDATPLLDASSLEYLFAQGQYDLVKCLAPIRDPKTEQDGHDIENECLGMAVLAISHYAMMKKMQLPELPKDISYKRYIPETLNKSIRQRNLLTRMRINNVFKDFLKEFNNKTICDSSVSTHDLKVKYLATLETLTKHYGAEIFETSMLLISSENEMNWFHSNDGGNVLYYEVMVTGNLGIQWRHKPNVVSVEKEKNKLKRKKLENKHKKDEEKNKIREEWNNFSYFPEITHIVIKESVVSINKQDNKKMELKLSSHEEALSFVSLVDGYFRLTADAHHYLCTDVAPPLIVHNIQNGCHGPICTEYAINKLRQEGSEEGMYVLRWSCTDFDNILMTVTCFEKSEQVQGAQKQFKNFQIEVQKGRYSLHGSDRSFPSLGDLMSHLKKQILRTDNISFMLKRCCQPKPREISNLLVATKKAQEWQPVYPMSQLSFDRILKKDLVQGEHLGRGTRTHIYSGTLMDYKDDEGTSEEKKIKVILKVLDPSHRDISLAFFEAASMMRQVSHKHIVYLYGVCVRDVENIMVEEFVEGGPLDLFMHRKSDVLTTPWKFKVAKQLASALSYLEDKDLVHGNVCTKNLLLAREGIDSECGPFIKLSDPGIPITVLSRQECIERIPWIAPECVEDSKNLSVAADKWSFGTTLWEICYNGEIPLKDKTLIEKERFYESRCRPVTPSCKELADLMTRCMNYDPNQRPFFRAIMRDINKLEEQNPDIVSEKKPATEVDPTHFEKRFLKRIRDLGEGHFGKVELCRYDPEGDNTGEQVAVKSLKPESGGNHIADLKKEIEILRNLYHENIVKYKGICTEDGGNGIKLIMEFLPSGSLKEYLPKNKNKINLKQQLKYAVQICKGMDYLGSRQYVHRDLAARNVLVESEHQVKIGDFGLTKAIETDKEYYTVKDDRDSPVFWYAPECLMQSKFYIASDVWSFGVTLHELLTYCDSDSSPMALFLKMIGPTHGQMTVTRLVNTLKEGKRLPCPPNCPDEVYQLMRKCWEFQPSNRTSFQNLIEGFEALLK
# Description: as §1
# as §2, with “JAK1” for “Aurora-A”, “20” for “8”, “Tris/HCl” for “MOPS”, “7.5,” for “7.0,”, “500” for “200”, “GEEPLYWSFPAKKK,” for “LRRASLG (Kemptide),”
# as §3
# [6] = Compound stability in rat liver microsomes; type: in vitro ADME; settings: pH 7.4; for half-life at 5 μM: rat liver microsomes 0.5 mg protein/mL, compound 5 μM, NADPH 1.0 mM, 37° C., read-out: Rat T1/2; for CLint scaled at 5 μM: rat liver microsomes, in vivo CLint extrapolated
# Description: as §4, §5, §6, §7, §8
# Aurora-A (h), sequence (O14965 whole entry): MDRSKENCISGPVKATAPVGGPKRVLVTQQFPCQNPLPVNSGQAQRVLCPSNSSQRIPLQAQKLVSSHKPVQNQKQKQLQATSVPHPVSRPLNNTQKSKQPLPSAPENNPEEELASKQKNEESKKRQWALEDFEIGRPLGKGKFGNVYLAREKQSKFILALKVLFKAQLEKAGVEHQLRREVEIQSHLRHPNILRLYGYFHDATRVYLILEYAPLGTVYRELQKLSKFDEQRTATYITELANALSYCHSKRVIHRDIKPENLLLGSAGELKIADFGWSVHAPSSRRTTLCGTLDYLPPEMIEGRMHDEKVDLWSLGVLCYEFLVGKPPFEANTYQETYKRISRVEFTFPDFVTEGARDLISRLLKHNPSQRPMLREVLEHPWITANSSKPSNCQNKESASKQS
IC50 [1] [nM],Clearance (CL) after iv dosing [2] [mL/min/kg],F [2] [%],AUC(0-t) [2] [ng·h/mL],half-life [2] [min],Vd [2] [L/kg],IC50 [3] [nM],half-life at 5 μM [4] [min],CLint scaled at 5 μM [4] [mL/min/kg],IC50 [5] [nM],half-life at 5 μM [6] [min],CLint scaled at 5 μM [6] [mL/min/kg],SMILES
8,63.7,24.0,263,21,0.95,1,178,9.78,23,96.9,25.6,"Cn1cc(Nc2ncc(Cl)c(NC3CC4CN(C(=O)NC5CC5)CC4C3)n2)cn1 (stereo not shown) [Ex. 19, 5-((5-chloro-2-((1-methyl-1H-pyrazol-4-yl)amino)pyrimidin-4-yl)amino)-N-cyclopropylhexahydrocyclopenta[c]pyrrole-2(1H)-carboxamide]"
3,75.8,31.9,231,24,2.02,0.7,34,51.2,2,9.3,267,"CCNS(=O)(=O)N1CC2CC(Nc3nc(Nc4cnn(C)c4)ncc3Cl)CC2C1 (stereo not shown) [Ex. 24, 5-((5-chloro-2-((1-methyl-1H-pyrazol-4-yl)amino)pyrimidin-4-yl)amino)-N-ethylhexahydrocyclopenta[c]pyrrole-2(1H)-sulfonamide]"
1,48.8,54.0,348,17.4,1.18,0.8,35.7,48.6,3,17.8,140,"Cn1cc(Nc2ncc(Cl)c(NC3CC4CN(S(=O)(=O)NC5CC5)CC4C3)n2)cn1 (stereo not shown) [Ex. 34, 5-((5-chloro-2-((1-methyl-1H-pyrazol-4-yl)amino)pyrimidin-4-yl)amino)-N-cyclopropylhexahydrocyclopenta[c]pyrrole-2(1H)-sulfonamide]"
0.8,62.8,35.3,270,25.2,1.65,1,67.1,25.9,1,45.5,54.6,"CC(O)Cn1cc(Nc2ncc(Cl)c(NC3CC4CN(S(C)(=O)=O)CC4C3)n2)cn1 (stereo not shown) [Ex. 38, 1-(4-((5-chloro-4-((2-(methylsulfonyl)octahydrocyclopenta[c]pyrrol-5-yl)amino)pyrimidin-2-yl)amino)-1H-pyrazol-1-yl)propan-2-ol]"
2,96,40.5,295,38.4,1.88,1,49.6,35,2,39.2,63.3,"CC(C)(O)Cn1cc(Nc2ncc(Cl)c(NC3CC4CN(S(C)(=O)=O)CC4C3)n2)cn1 (stereo not shown) [Ex. 39, 1-(4-((5-chloro-4-((2-(methylsulfonyl)octahydrocyclopenta[c]pyrrol-5-yl)amino)pyrimidin-2-yl)amino)-1H-pyrazol-1-yl)-2-methylpropan-2-ol]"
5,60.8,31.4,276,51.6,1.75,1,–,–,–,–,–,"CC(O)Cn1cc(Nc2ncc(Cl)c(NC3CC4CN(S(=O)(=O)C5CC5)CC4C3)n2)cn1 (stereo not shown) [Ex. 44, 1-(4-((5-chloro-4-((2-(cyclopropylsulfonyl)octahydrocyclopenta[c]pyrrol-5-yl)amino)pyrimidin-2-yl)amino)-1H-pyrazol-1-yl)propan-2-ol]"
5,62.3,27.1,267,39.6,1.97,0.8,–,–,–,–,–,"CCNS(=O)(=O)N1CC2CC(Nc3nc(Nc4cnn(CC(C)O)c4)ncc3Cl)CC2C1 (stereo not shown) [Ex. 45, 5-((5-chloro-2-((1-(2-hydroxypropyl)-1H-pyrazol-4-yl)amino)pyrimidin-4-yl)amino)-N-ethylhexahydrocyclopenta[c]pyrrole-2(1H)-sulfonamide]"
10,60.7,24.9,277,15.6,1.13,1,–,–,–,–,–,"CC(O)Cn1cc(Nc2ncc(Cl)c(NC3CC4CN(S(=O)(=O)CC5CC5)CC4C3)n2)cn1 (stereo not shown) [Ex. 46, 1-(4-((5-chloro-4-((2-((cyclopropylmethyl)sulfonyl)octahydrocyclopenta[c]pyrrol-5-yl)amino)pyrimidin-2-yl)amino)-1H-pyrazol-1-yl)propan-2-ol]"
7,69.3,22.4,239,42.6,2.37,0.6,–,–,–,–,–,"CC(O)Cn1cc(Nc2ncc(Cl)c(NC3CC4CN(S(=O)(=O)NC5CC5)CC4C3)n2)cn1 (stereo not shown) [Ex. 47, 5-((5-chloro-2-((1-(2-hydroxypropyl)-1H-pyrazol-4-yl)amino)pyrimidin-4-yl)amino)-N-cyclopropylhexahydrocyclopenta[c]pyrrole-2(1H)-sulfonamide]"
